Assay results from PubChem BioAssay (NCI).
“And” between values parts separate entries of the source, which are not always exact repeats. Equal entries are not always repeated.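 Compound exposure: 48 hours, 5 concentrations, 96-well plates. Abbreviation: GI50, concentration required for 50% inhibition of growth. TGI is the concentration that stops growth completely.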

How the values were obtained:
Assay in all cases: inhibition of tumour cell growth, NCI panel, 48 h
NCI/ADR-RES ovarian = test system: NCI/ADR-RES ovarian
786-0 renal = test system: 786-0 renal
SNB-19 CNS = test system: SNB-19 CNS
A549 NSCLC = test system: A549 NSCLC
OVCAR-4 ovarian = test system: OVCAR-4 ovarian
NCI-H460 lung = test system: NCI-H460 lung
MALME-3M melanoma = test system: MALME-3M melanoma
SF-539 CNS = test system: SF-539 CNS
SK-MEL-28 melanoma = test system: SK-MEL-28 melanoma
SK-MEL-2 melanoma = test system: SK-MEL-2 melanoma

| Compound | GI50 (NCI/ADR-RES ovarian) | TGI (NCI/ADR-RES ovarian) | TGI (786-0 renal) | GI50 (SNB-19 CNS) | GI50 (A549 NSCLC) | TGI (A549 NSCLC) | TGI (OVCAR-4 ovarian) | GI50 (NCI-H460 lung) | TGI (NCI-H460 lung) | GI50 (MALME-3M melanoma) | TGI (MALME-3M melanoma) | GI50 (SF-539 CNS) | TGI (SF-539 CNS) | GI50 (SK-MEL-28 melanoma) | TGI (SK-MEL-28 melanoma) | GI50 (786-0 renal) | TGI (SNB-19 CNS) | GI50 (SK-MEL-2 melanoma) | TGI (SK-MEL-2 melanoma) | GI50 (OVCAR-4 ovarian) |
| --- | --- | --- | --- | --- | --- | --- | --- | --- | --- | --- | --- | --- | --- | --- | --- | --- | --- | --- | --- | --- |
| COC(=O)[C@@H](C)C[C@H](Cc1ccccc1)NC(=O)c1csc([C@@H](C[C@H](C(C)C)N(C)C(=O)C2(NC(=O)[C@H]3CCCCN3C)CCC2)OC(C)=O)n1 | 16.9 µM | > 25 µM | > 25 µM | 0.00708 µM | 0.0564 µM and 0.0136 µM | > 25 µM | > 25 µM | 0.00549 µM and 0.0057 µM | > 25 µM | 0.0025 µM | > 25 µM | 0.00784 µM and 0.00441 µM | 0.0518 µM and 0.0137 µM | 0.0307 µM and 0.00667 µM | > 25 µM |  |  |  |  |  |
| CC(C)OCc1cc(CN2CCN(c3cccc(Cl)c3)CC2)c(O)c2ncccc12 | 0.203 µM | 10.6 µM | 9.56 µM | 0.504 µM | 0.512 µM | 11.9 µM |  | 0.41 µM | 11.2 µM | 1.03 µM | 7.33 µM | 0.471 µM | 3.48 µM | 0.997 µM | 14.5 µM | 0.785 µM | 21.7 µM | 1.74 µM | 7.07 µM |  |
| N#Cc1c2ccccc2c2nnc3ccccc3n12 |  |  | > 100 µM | 41.1 µM | 13.5 µM | 36.7 µM | > 100 µM | 31.9 µM | > 100 µM | > 100 µM | > 100 µM |  |  | 78.6 µM | > 100 µM | 53.2 µM | > 100 µM |  |  | > 100 µM |
| O=C(O)CNCCc1ccccc1 |  | > 100 µM | > 100 µM |  |  | > 100 µM | > 100 µM |  | > 100 µM |  | > 100 µM |  |  |  | > 100 µM |  | > 100 µM |  | > 100 µM |  |
| CC(=O)N(CCN1C(=O)c2ccccc2C1=O)CCN1C(=O)c2ccccc2C1=O |  |  | > 100 µM |  |  | > 100 µM | > 100 µM |  | > 100 µM |  |  |  |  |  | > 100 µM |  | > 100 µM |  | > 100 µM |  |
| OCCCc1cnco1 |  |  | > 100 µM |  |  | > 100 µM | > 100 µM |  | > 100 µM |  | > 100 µM |  | > 100 µM |  | > 100 µM |  | > 100 µM |  |  |  |
| CC(=O)Oc1c(Br)ccc2cc(C(Br)Br)c(C(=O)c3ccccc3)nc12 |  |  | 46.9 µM |  |  | 43.4 µM | 21.7 µM |  | 44.4 µM |  | 51 µM |  | 42.3 µM |  | 36.1 µM |  | 39.1 µM |  | 48.2 µM |  |
| CC(=O)SC(SC(C)=O)SC(C)=O |  |  | > 100 µM |  |  | > 100 µM | > 100 µM |  | > 100 µM |  | > 100 µM |  | > 100 µM |  | > 100 µM |  | > 100 µM |  | > 100 µM |  |
| Fc1ccc(C2SCc3nc4ccccc4n32)cc1F (stereo unspecified) |  |  | > 100 µM |  |  | > 100 µM | 98.9 µM |  | > 100 µM |  | > 100 µM |  | > 100 µM |  | 66.7 µM |  | > 100 µM |  | 63.7 µM |  |
| O=[N+]([O-])c1ccc(/C(Cl)=C/c2ccc(/C=C(\Cl)c3ccc([N+](=O)[O-])cc3[N+](=O)[O-])cc2)c([N+](=O)[O-])c1 |  |  | > 100 µM |  |  | > 100 µM | > 100 µM |  | > 100 µM |  | > 100 µM |  | > 100 µM |  | > 100 µM |  |  |  | > 100 µM |  |
